pIC50: −log10 of the molar value. Converted amounts (≈) assume the structure as drawn.
Experiments:
[1] = test system: Bacillus subtilis; experiment: Antibacterial activity against Bacillus subtilis MTCC 121 incubated for 24 hrs under dark condition by microwell dilution method; type: functional; conditions: MTCC 121, 24 h
[2] = test system: Bacillus subtilis; experiment: Antibacterial activity against Bacillus subtilis MTCC 121 at 100 ug incubated for 24 hrs under dark condition by agar well diffusion method; type: functional; conditions: MTCC 121, 24 h, read-out: IZ
[3] = test system: A549; experiment: Cytotoxicity against human A549 cells assessed as decrease in cell viability after 48 hrs by MTT assay; type: functional, cell-based; conditions: A549, 48 h
[4] = Antioxidant activity assessed as assessed as ferric ion reducing activity by measuring absorbance at 700 nm at 20 ug/ml after 20 mins by spectrophotometric method; type: functional
[5] = Antioxidant activity assessed as assessed as ferric ion reducing activity by measuring absorbance at 700 nm at 100 ug/ml after 20 mins by spectrophotometric method; type: functional
[6] = Antioxidant activity assessed as DPPH radical scavenging activity after 20 mins by UV/VIS Spectrophotometric method; type: functional
[7] = Antioxidant activity assessed as total antioxidant capacity measured as ascorbic acid equivalents at 20 ug/ml after 90 mins by phosphomolybdenum method; type: functional
[8] = Antioxidant activity assessed as total antioxidant capacity measured as ascorbic acid equivalents at 60 ug/ml after 90 mins by phosphomolybdenum method; type: functional
[9] = test system: Pseudomonas aeruginosa; experiment: Antibacterial activity against Pseudomonas aeruginosa MTCC 102 at 100 ug incubated for 24 hrs under dark condition by agar well diffusion method; type: functional; conditions: MTCC 102, 24 h, read-out: IZ
[10] = Antioxidant activity assessed as assessed as ferric ion reducing activity by measuring absorbance at 700 nm at 60 ug/ml after 20 mins by spectrophotometric method; type: functional
[11] = Antioxidant activity assessed as total antioxidant capacity measured as ascorbic acid equivalents at 100 ug/ml after 90 mins by phosphomolybdenum method; type: functional
[12] = test system: Escherichia coli; experiment: Antibacterial activity against Escherichia coli MTCC 1652 at 100 ug incubated for 24 hrs under dark condition by agar well diffusion method; type: functional; conditions: MTCC 1652, 24 h, read-out: IZ
[13] = test system: MCF7; experiment: Cytotoxicity against human MCF7 cells assessed as decrease in cell viability after 48 hrs by MTT assay; type: functional, cell-based; conditions: MCF7, 48 h
[14] = test system: Staphylococcus aureus; experiment: Antibacterial activity against Staphylococcus aureus MTCC 96 at 100 ug incubated for 24 hrs under dark condition by agar well diffusion method; type: functional; conditions: MTCC 96, 24 h, read-out: IZ
[15] = test system: Escherichia coli; experiment: Antibacterial activity against Escherichia coli MTCC 1652 incubated for 24 hrs under dark condition by microwell dilution method; type: functional; conditions: MTCC 1652, 24 h
[16] = test system: Staphylococcus aureus; experiment: Antibacterial activity against Staphylococcus aureus MTCC 96 incubated for 24 hrs under dark condition by microwell dilution method; type: functional; conditions: MTCC 96, 24 h
[17] = test system: Pseudomonas aeruginosa; experiment: Antibacterial activity against Pseudomonas aeruginosa MTCC 102 incubated for 24 hrs under dark condition by microwell dilution method; type: functional; conditions: MTCC 102, 24 h

O=[N+]([O-])c1cccc2c1NCC1C2=NN(c2ccccc2)C1c1ccccc1 (configuration not stated)
MIC [1]: 60 µg/mL (≈ 162 µM)
zone of inhibition at 100 µg/disc [2]: 8 mm
pIC50 [3]: 4.22
OD [4]: 0.075
OD [5]: 0.096
IC50 [6]: 146.85 µg/mL (≈ 396 µM)
Activity [7]: 5.18 µgequiv/ml
Activity [8]: 10.8 µgequiv/ml
zone of inhibition at 100 µg/disc [9]: 14 mm
OD [10]: 0.08
Activity [11]: 14.9 µgequiv/ml
zone of inhibition at 100 µg/disc [12]: 12 mm
pIC50 [13]: 4.27
zone of inhibition at 100 µg/disc [14]: 8 mm
MIC [15]: 60 µg/mL (≈ 162 µM)
MIC [16]: 60 µg/mL (≈ 162 µM)
MIC [17]: 150 µg/mL (≈ 405 µM)

COc1ccc(C2C(C#N)=C(N)OC3=C2CNc2c3cccc2[N+](=O)[O-])cc1 (configuration not stated)
MIC [1]: 12.5 µg/mL (≈ 33.2 µM)
zone of inhibition at 100 µg/disc [2]: 20 mm
pIC50 [3]: 4.45
OD [4]: 0.109
OD [5]: 0.368
IC50 [6]: 65.42 µg/mL (≈ 174 µM)
Activity [7]: 7.55 µgequiv/ml
Activity [8]: 15.1 µgequiv/ml
zone of inhibition at 100 µg/disc [9]: 21 mm
OD [10]: 0.211
Activity [11]: 23.2 µgequiv/ml
zone of inhibition at 100 µg/disc [12]: 20 mm
pIC50 [13]: 4.78
zone of inhibition at 100 µg/disc [14]: 21 mm
MIC [15]: 17 µg/mL (≈ 45.2 µM)
MIC [16]: 10 µg/mL (≈ 26.6 µM)
MIC [17]: 37 µg/mL (≈ 98.3 µM)

COc1ccc(C2C3CNc4c(cccc4[N+](=O)[O-])C3=NN2c2ccccc2)cc1 (configuration not stated)
MIC [1]: 20 µg/mL (≈ 49.9 µM)
zone of inhibition at 100 µg/disc [2]: 17 mm
pIC50 [3]: 4.40
OD [4]: 0.091
OD [5]: 0.192
IC50 [6]: 138.8 µg/mL (≈ 347 µM)
Activity [7]: 4.95 µgequiv/ml
Activity [8]: 10.5 µgequiv/ml
zone of inhibition at 100 µg/disc [9]: 10 mm
OD [10]: 0.134
Activity [11]: 14.3 µgequiv/ml
zone of inhibition at 100 µg/disc [12]: 14 mm
pIC50 [13]: 4.50
zone of inhibition at 100 µg/disc [14]: 15 mm
MIC [15]: 42.5 µg/mL (≈ 106 µM)
MIC [16]: 17.5 µg/mL (≈ 43.7 µM)
MIC [17]: 200 µg/mL (≈ 499 µM)

O=[N+]([O-])c1cccc2c1NCC1C2=NN(c2ccccc2)C1c1ccc(F)cc1 (configuration not stated)
MIC [1]: 12.5 µg/mL (≈ 32.2 µM)
zone of inhibition at 100 µg/disc [2]: 18 mm
pIC50 [3]: 4.63
OD [4]: 0.092
OD [5]: 0.112
IC50 [6]: 205.13 µg/mL (≈ 528 µM)
Activity [7]: 4.02 µgequiv/ml
Activity [8]: 7.36 µgequiv/ml
zone of inhibition at 100 µg/disc [9]: 18 mm
OD [10]: 0.1
Activity [11]: 11.2 µgequiv/ml
zone of inhibition at 100 µg/disc [12]: 21 mm
pIC50 [13]: 4.34
zone of inhibition at 100 µg/disc [14]: 20 mm
MIC [15]: 17 µg/mL (≈ 43.8 µM)
MIC [16]: 10 µg/mL (≈ 25.7 µM)
MIC [17]: 55.5 µg/mL (≈ 143 µM)

COc1ccc(N2N=C3c4cc(Cl)cc([N+](=O)[O-])c4NCC3C2c2ccc(Cl)cc2)cc1 (configuration not stated)
MIC [1]: 50 µg/mL (≈ 107 µM)
zone of inhibition at 100 µg/disc [2]: 14 mm
pIC50 [3]: 4.50
OD [4]: 0.1
OD [5]: 0.253
IC50 [6]: 151.83 µg/mL (≈ 324 µM)
Activity [7]: 1.86 µgequiv/ml
Activity [8]: 4.43 µgequiv/ml
zone of inhibition at 100 µg/disc [9]: 13 mm
OD [10]: 0.171
Activity [11]: 8.36 µgequiv/ml
zone of inhibition at 100 µg/disc [12]: 12 mm
pIC50 [13]: 4.59
zone of inhibition at 100 µg/disc [14]: 13 mm
MIC [15]: 80.5 µg/mL (≈ 172 µM)
MIC [16]: 50 µg/mL (≈ 107 µM)
MIC [17]: 100 µg/mL (≈ 213 µM)

COc1ccc(C2C(C#N)=C(N)OC3=C2CNc2c3cccc2[N+](=O)[O-])cc1OC (configuration not stated)
MIC [1]: 20 µg/mL (≈ 49.2 µM)
zone of inhibition at 100 µg/disc [2]: 15 mm
pIC50 [3]: 4.30
OD [4]: 0.078
OD [5]: 0.157
IC50 [6]: 124.38 µg/mL (≈ 306 µM)
Activity [7]: 4.04 µgequiv/ml
Activity [8]: 9.51 µgequiv/ml
zone of inhibition at 100 µg/disc [9]: 13 mm
OD [10]: 0.111
Activity [11]: 13.7 µgequiv/ml
zone of inhibition at 100 µg/disc [12]: 12 mm
pIC50 [13]: 4.25
zone of inhibition at 100 µg/disc [14]: 14 mm
MIC [15]: 80.5 µg/mL (≈ 198 µM)
MIC [16]: 40 µg/mL (≈ 98.4 µM)
MIC [17]: 150 µg/mL (≈ 369 µM)

N#CC1=C(N)OC2=C(CNc3c2cccc3[N+](=O)[O-])C1c1ccc(F)cc1 (configuration not stated)
MIC [1]: 7.5 µg/mL (≈ 20.6 µM)
zone of inhibition at 100 µg/disc [2]: 26 mm
pIC50 [3]: 4.65
OD [4]: 0.085
OD [5]: 0.12
IC50 [6]: 128.58 µg/mL (≈ 353 µM)
Activity [7]: 2.12 µgequiv/ml
Activity [8]: 4.06 µgequiv/ml
zone of inhibition at 100 µg/disc [9]: 20 mm
OD [10]: 0.098
Activity [11]: 7.45 µgequiv/ml
zone of inhibition at 100 µg/disc [12]: 22 mm
pIC50 [13]: 4.45
zone of inhibition at 100 µg/disc [14]: 23 mm
MIC [15]: 17 µg/mL (≈ 46.7 µM)
MIC [16]: 5 µg/mL (≈ 13.7 µM)
MIC [17]: 37 µg/mL (≈ 102 µM)

N#CC1=C(N)OC2=C(CNc3c2cccc3[N+](=O)[O-])C1c1ccc(Br)cc1 (configuration not stated)
MIC [1]: 12.5 µg/mL (≈ 29.4 µM)
zone of inhibition at 100 µg/disc [2]: 20 mm
pIC50 [3]: 4.46
OD [4]: 0.071
OD [5]: 0.134
IC50 [6]: 125.08 µg/mL (≈ 294 µM)
Activity [7]: 1.5 µgequiv/ml
Activity [8]: 2.98 µgequiv/ml
zone of inhibition at 100 µg/disc [9]: 20 mm
OD [10]: 0.095
Activity [11]: 5.67 µgequiv/ml
zone of inhibition at 100 µg/disc [12]: 18 mm
pIC50 [13]: 4.61
zone of inhibition at 100 µg/disc [14]: 20 mm
MIC [15]: 25.5 µg/mL (≈ 60 µM)
MIC [16]: 10 µg/mL (≈ 23.5 µM)
MIC [17]: 37 µg/mL (≈ 87 µM)

O=[N+]([O-])c1cc(Cl)cc2c1NCC1C2=NNC1c1ccc(Cl)cc1 (configuration not stated)
MIC [1]: 60 µg/mL (≈ 165 µM)
zone of inhibition at 100 µg/disc [2]: 10 mm
pIC50 [3]: 4.02
OD [4]: 0.072
OD [5]: 0.091
IC50 [6]: 169.33 µg/mL (≈ 466 µM)
Activity [7]: 3.47 µgequiv/ml
Activity [8]: 6.27 µgequiv/ml
zone of inhibition at 100 µg/disc [9]: 14 mm
OD [10]: 0.083
Activity [11]: 11.8 µgequiv/ml
zone of inhibition at 100 µg/disc [12]: 8 mm
pIC50 [13]: 4.11
zone of inhibition at 100 µg/disc [14]: 13 mm
MIC [15]: 97.5 µg/mL (≈ 268 µM)
MIC [16]: 55 µg/mL (≈ 151 µM)
MIC [17]: 100 µg/mL (≈ 275 µM)

O=[N+]([O-])c1cccc2c1NCC1C2=NN(c2ccccc2)C1c1ccc(Br)cc1 (configuration not stated)
MIC [1]: 12.5 µg/mL (≈ 27.8 µM)
zone of inhibition at 100 µg/disc [2]: 19 mm
pIC50 [3]: 4.53
OD [4]: 0.09
OD [5]: 0.107
IC50 [6]: 226.97 µg/mL (≈ 505 µM)
Activity [7]: 6.12 µgequiv/ml
Activity [8]: 13.7 µgequiv/ml
zone of inhibition at 100 µg/disc [9]: 16 mm
OD [10]: 0.096
Activity [11]: 18.2 µgequiv/ml
zone of inhibition at 100 µg/disc [12]: 18 mm
pIC50 [13]: 4.46
zone of inhibition at 100 µg/disc [14]: 16 mm
MIC [15]: 25.5 µg/mL (≈ 56.8 µM)
MIC [16]: 15 µg/mL (≈ 33.4 µM)
MIC [17]: 55.5 µg/mL (≈ 124 µM)

N#CC1=C(N)OC2=C(CNc3c2cc(Cl)cc3[N+](=O)[O-])C1c1ccc(Cl)cc1 (configuration not stated)
MIC [1]: 17.5 µg/mL (≈ 42.1 µM)
zone of inhibition at 100 µg/disc [2]: 18 mm
pIC50 [3]: 4.59
OD [4]: 0.093
OD [5]: 0.156
IC50 [6]: 132.65 µg/mL (≈ 319 µM)
Activity [7]: 3.67 µgequiv/ml
Activity [8]: 7.08 µgequiv/ml
zone of inhibition at 100 µg/disc [9]: 16 mm
OD [10]: 0.125
Activity [11]: 13 µgequiv/ml
zone of inhibition at 100 µg/disc [12]: 18 mm
pIC50 [13]: 4.74
zone of inhibition at 100 µg/disc [14]: 15 mm
MIC [15]: 25.5 µg/mL (≈ 61.4 µM)
MIC [16]: 17.5 µg/mL (≈ 42.1 µM)
MIC [17]: 55.5 µg/mL (≈ 134 µM)
